Test results: ChEMBL document CHEMBL1201862, “PubChem BioAssay data set” (2004)
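Compound exposure: 48 hours, 5 concentrations, 96-well plates. Abbreviation: GI50, concentration required for 50% inhibition of growth.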 Active and inactive are the calls of the source. Cut-off read from the data, not from the text of the source: active = GI50 up to about 1.1 µM and inactive = higher.

Tests used:
Experiment in all cases: DTP human tumour cell line panel, 48 h
[1] = system: COLO 205
[2] = system: PC-3
[3] = system: HCC 2998
[4] = system: MOLT-4
[5] = system: NCI/ADR-RES
[6] = system: SK-MEL-5
[7] = system: KM12
[8] = system: RXF 393
[9] = system: HCT-116
[10] = system: RPMI-8226
[11] = system: SF-268
[12] = system: MDA-MB-231
[13] = system: SR
[14] = system: EKVX
[15] = system: ACHN
[16] = system: OVCAR-3
[17] = system: SF-539
[18] = system: OVCAR-8
[19] = system: SK-OV-3
[20] = system: LOX IMVI

Measured: GI50

COc1c2cc(C(C)(C)C)cc1Cc1cccc(c1O)Cc1cc(C(C)(C)C)cc(c1OC)Cc1cccc(c1O)Cc1cc(C(C)(C)C)cc(c1OC)Cc1cccc(c1O)C2
inactive: [1] > 100 µM | [2] > 100 µM | [3] > 100 µM | [4] > 100 µM | [5] > 100 µM | [6] > 100 µM | [7] > 100 µM | [8] > 100 µM | [9] > 100 µM | [10] > 100 µM | [11] > 100 µM | [12] > 100 µM | [13] > 100 µM | [14] > 100 µM | [15] > 100 µM | [16] > 100 µM | [17] > 100 µM | [18] > 100 µM

Cc1ccc(/N=N/c2c(O)ccc3cc(S(=O)(=O)O)ccc23)c(C)c1
inactive: [19] > 100 µM | [1] > 100 µM | [2] > 100 µM | [3] > 100 µM | [4] > 100 µM | [5] > 100 µM | [6] > 100 µM | [7] > 100 µM | [8] > 100 µM | [9] > 100 µM | [11] > 100 µM | [12] > 100 µM | [13] > 100 µM | [14] > 100 µM | [15] > 100 µM | [16] > 100 µM | [17] > 100 µM | [18] > 100 µM

CNC(=S)/C(C#N)=C(\N)N1CCCC1
inactive: [19] > 100 µM | [1] > 100 µM | [2] > 100 µM | [3] > 100 µM | [4] > 100 µM | [5] > 100 µM | [6] > 100 µM | [7] > 100 µM | [8] > 100 µM | [9] > 100 µM | [10] > 100 µM | [11] > 100 µM | [12] > 100 µM | [13] > 100 µM | [14] > 100 µM | [15] > 100 µM | [16] > 100 µM | [17] > 100 µM | [18] > 100 µM

O=S(=O)(c1ccc2ccccc2c1)N1CCN(S(=O)(=O)c2ccc3ccccc3c2)CC1
inactive: [20] > 100 µM | [19] 51.3 µM | [1] > 100 µM | [2] > 100 µM | [3] > 100 µM | [5] > 100 µM | [6] > 100 µM | [7] > 100 µM | [8] > 100 µM | [9] > 100 µM | [10] > 100 µM | [11] > 100 µM | [12] > 100 µM | [13] > 100 µM | [14] > 100 µM | [15] > 100 µM | [16] 36 µM | [18] 93.1 µM

COc1ccc2c(=O)c(O)c(-c3ccc(OC)c(OC)c3)oc2c1
inactive: [20] 5.58 µM | [19] 5.42 µM | [1] 28.9 µM | [2] 9.38 µM | [3] 27.9 µM | [4] 3.22 µM | [5] 2.23 µM | [6] 5.5 µM | [9] 4.97 µM | [10] 4.09 µM | [11] 4.84 µM | [12] 4.8 µM | [13] 4.08 µM | [14] 6.95 µM | [15] 3.54 µM | [16] 2.84 µM | [18] 3.71 µM

COC(=O)C1CCN(C(=O)OC(C)(C)C)CC1
inactive: [20] > 100 µM | [1] > 100 µM | [2] > 100 µM | [3] > 100 µM | [4] > 100 µM | [5] > 100 µM | [6] > 100 µM | [7] > 100 µM | [9] > 100 µM | [10] > 100 µM | [11] > 100 µM | [12] > 100 µM | [13] > 100 µM | [14] > 100 µM | [15] > 100 µM | [16] > 100 µM | [17] > 100 µM | [18] > 100 µM
